For one compound, IC50 and inhibition results are on record in paper PMC1660542, “Structure-based discovery of inhibitors of the YycG histidine kinase: New chemical leads to combat Staphylococcus epidermidis infections” (BMC Microbiology, 2006).

The target in the assay is T1, YycG' protein (Staphylococcus epidermidis, UniProt Q8CU87).
T1 construct: of YycG (370aa to 610aa) was amplified by PCR; His-tag (pET28a) (N); made in house; host or cells: E. coli BL21 (pET28a, pETYycG')
Nature of the assay: Inhibition of YycG' ATPase activity / autophosphorylation (Kinase-Glo Luminescent Kinase Assay). The format is biochemical. The note with it: 3 μM ATP. The protocol:
The inhibitory activities of the compounds for the ATPase activity of the YycG' protein was measured using the Kinase-Glo™ Luminescent Kinase Assay (Promega, Madison, USA). Briefly, 4 μg YycG' protein was pre-incubated with a series of dilution of compounds in the reaction buffer (40 mM Tris [pH 7.5], 20 mM MgCl2, and 0.1 mg/ml BSA), at 25°C for 30 min. Then 3 μM ATP was added for another incubation of 30 min at 25°C, and Kinase-Glo™ Reagent was added to detect the rest amount of ATP, as recorded from luminescence measurements (RLU). In parallel, theYycG' protein with no addition of compounds was used as the control. The rate of inhibiting protein phosphorylation (Rp) by the compounds was calculated from equation 1:
Rp=RLU(YycG^′+compound+ATP+Reagent)−RLU(YycG^′+ATP+Reagent)/RLU(ATP+Reagent)−RLU(YycG^′+ATP+Reagent)×100% (1) MathType@MTEF@5@5@+=feaafiart1ev1aaatCvAUfKttLearuWrP9MDH5MBPbIqV92AaeXatLxBI9gBaebbnrfifHhDYfgasaacH8akY=wiFfYdH8Gipec8Eeeu0xXdbba9frFj0=OqFfea0dXdd9vqai=hGuQ8kuc9pgc9s8qqaq=dirpe0xb9q8qiLsFr0=vr0=vr0dc8meaabaqaciaacaGaaeqabaqabeGadaaakeaacqqGsbGudaWgaaWcbaGaeeiCaahabeaakiabg2da9maalaaabaGaeeOuaiLaeeitaWKaeeyvauLaeiikaGIaeeywaKLaeeyEaKNaee4yamMafe4raCKbauaacqGHRaWkcqqGJbWycqqGVbWBcqqGTbqBcqqGWbaCcqqGVbWBcqqG1bqDcqqGUbGBcqqGKbazcqGHRaWkcqqGbbqqcqqGubavcqqGqbaucqGHRaWkcqqGsbGucqqGLbqzcqqGHbqycqqGNbWzcqqGLbqzcqqGUbGBcqqG0baDcqGGPaqkcqGHsislcqqGsbGucqqGmbatcqqGvbqvcqGGOaakcqqGzbqwcqqG5bqEcqqGJbWycuqGhbWrgaqbaiabgUcaRiabbgeabjabbsfaujabbcfaqjabgUcaRiabbkfasjabbwgaLjabbggaHjabbEgaNjabbwgaLjabb6gaUjabbsha0jabcMcaPaqaaiabbkfasjabbYeamjabbwfavjabcIcaOiabbgeabjabbsfaujabbcfaqjabgUcaRiabbkfasjabbwgaLjabbggaHjabbEgaNjabbwgaLjabb6gaUjabbsha0jabcMcaPiabgkHiTiabbkfasjabbYeamjabbwfavjabcIcaOiabbMfazjabbMha5jabbogaJjqbbEeahzaafaGaey4kaSIaeeyqaeKaeeivaqLaeeiuaaLaey4kaSIaeeOuaiLaeeyzauMaeeyyaeMaee4zaCMaeeyzauMaeeOBa4MaeeiDaqNaeiykaKcaaiabgEna0kabigdaXiabicdaWiabicdaWiabcwcaLiaaxMaacaWLjaWaaeWaaeaacqaIXaqmaiaawIcacaGLPaaaaaa@A46C@
IC50 (the concentration of inhibition of 50% YycG' protein autophosphorylation) was obtained by using the Origin v7.0 software (OriginLab, Northampton, USA).
A general note: Kinase-Glo reads ATP consumption through a luciferase reaction.

T1 sequence (Q8CU87 370-610): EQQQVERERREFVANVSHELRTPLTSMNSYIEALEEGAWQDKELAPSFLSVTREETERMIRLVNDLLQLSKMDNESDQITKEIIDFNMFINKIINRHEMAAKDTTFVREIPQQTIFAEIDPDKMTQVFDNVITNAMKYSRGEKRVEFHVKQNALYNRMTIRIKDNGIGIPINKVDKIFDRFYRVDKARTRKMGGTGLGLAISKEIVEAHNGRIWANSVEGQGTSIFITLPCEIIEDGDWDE

With `Cc1ccc(NC(=O)CN2C(=O)S/C(=C\c3ccc(OCc4cccc(C(O)O)c4)cc3)C2=O)cc1` [Compound 7], the half-maximal inhibitory concentration (IC50) (4 μg YycG' protein, read-out: IC50 for YycG') was 6.5 µM. Moreover, the inhibition at 50 µM (compound 50 μM, 4 μg protein, read-out: Inhibition of YycG' phosphorylation (decrease of ATPase activity)) was found to be 86%.

As a reminder, the IC50 is the point on the concentration scale where inhibition reaches its midpoint. In general, inhibition refers to the relative decrease from the control value, in per cent.
